{"source": "paper PMC8408311", "about": "(Diabetologia, 2021)", "key": {"[1]": {"test_system": "primary cilium of islet beta cells", "test": "Cilia Ca2+ imaging in mouse islets", "assay_type": "cell-based", "conditions": "GABA 1-10 nM; GABAB-receptor agonist Baclofen; Vigabatrin (inhibition of GABA degradation)"}, "C2C12 myotubes": {"test_system": "C2C12 myotubes", "test": "C2-ceramide recycling and insulin response in C2C12 myotubes", "assay_type": "cell-based, mouse", "conditions": "at 25 mM glucose"}, "male Wistar rats": {"test_system": "male Wistar rats", "test": "30-min filament middle cerebral artery occlusion", "assay_type": "in vivo, rat", "conditions": "48 h after MCAO; healthy 18 points, maximal deficit 3 points"}, "H9C2 cells": {"test_system": "H9C2 cells", "test": "2-NBD-Glucose uptake", "assay_type": "cell-based", "conditions": "25μM MG 24h, after 60 min"}, "[2]": {"test_system": "mouse cardiac endothelial cells (MCECs)", "test": "Methylglyoxal treatment of mouse cardiac endothelial cells", "assay_type": "cell-based"}, "[3]": {"test": "Sodium-phenylbutyrate 2-week crossover trial in type 2 diabetes"}, "INS1E cells": {"test_system": "INS1E cells", "test": "Fatty acid toxicity in INS1E cells", "assay_type": "cell-based, rat", "conditions": "24 h"}, "[4]": {"test": "SURPASS-2, add-on to metformin in type 2 diabetes", "assay_type": "in vivo, human", "conditions": "TZP range over 5-15 mg; SEMA 1 mg"}, "[5]": {"conditions": "2-step hyperinsulinemic-euglycemic clamp"}}, "data": [{"smiles": "NCC(CC(=O)O)c1ccc(Cl)cc1", "note": "(stereo not drawn) [Baclofen]", "values": [{"measurement": "Increase of occurrence of cilia Ca2+ flashes", "setting": "[1]", "result": "3-4 fold"}]}, {"smiles": "CCCCCCCCCCCCC/C=C/[C@@H](O)[C@H](CO)NC(C)=O", "note": "[C2cer, C2-Cer]", "values": [{"measurement": "Effect on the insulin signal", "setting": "C2C12 myotubes", "result": "inhibited completely the insulin signal"}]}, {"smiles": "NCCCC(=O)O", "note": "[GABA, Gamma aminobutyric acid]", "values": [{"measurement": "Increase of occurrence of cilia Ca2+ flashes", "setting": "[1]", "result": "3-4 fold"}]}, {"smiles": "CN(C)C(=N)N=C(N)N", "note": "[MET, metformin]", "values": [{"measurement": "Garcia score (neurological deficit)", "setting": "male Wistar rats", "result": "12.0 (6.5; 12.5) points"}]}, {"smiles": "CC(=O)C=O", "note": "[MG, methylglyoxal]", "values": [{"measurement": "2-NBD-Glucose uptake after MG", "setting": "H9C2 cells; 20mM glucose, printed 54% vs 44%", "result": 54, "unit": "%"}, {"measurement": "2-NBD-Glucose uptake after MG", "setting": "H9C2 cells; 30 mM glucose, printed 50% vs 39%", "result": 50, "unit": "%"}, {"measurement": "Hspa9 mRNA, mean", "setting": "[2]; 500 μM, Hspa1a/Hspa1b KO cells", "result": 1.52, "unit": "fold"}, {"measurement": "Hspa9 protein, mean", "setting": "[2]; 500 μM, Hspa1a/Hspa1b KO cells", "result": 3.17}, {"measurement": "Hspd1 mRNA, mean", "setting": "[2]; 500 μM, Hspa1a/Hspa1b KO cells", "result": 1.57, "unit": "fold"}, {"measurement": "Hspd1 protein, mean", "setting": "[2]; 500 μM, Hspa1a/Hspa1b KO cells", "result": 3.84}, {"measurement": "Drp1 mRNA", "setting": "[2]; 500 μM, wild-type cells", "result": 1.39, "unit": "fold"}, {"measurement": "Hspa1a mRNA, mean", "setting": "[2]; 500 μM, wild-type cells", "result": 1.57, "unit": "fold"}, {"measurement": "Hspa1a/Hspa1b protein level, mean", "setting": "[2]; 500 μM, wild-type cells", "result": 1.56, "unit": "fold"}, {"measurement": "Hspa1b mRNA, mean", "setting": "[2]; 500 μM, wild-type cells", "result": 1.78, "unit": "fold"}, {"measurement": "Hspa9 mRNA, mean", "setting": "[2]; 500 μM, wild-type cells", "result": 1.42, "unit": "fold"}, {"measurement": "Hspa9 protein, mean", "setting": "[2]; 500 μM, wild-type cells", "result": 1.96, "unit": "fold"}, {"measurement": "Hspd1 mRNA, mean", "setting": "[2]; 500 μM, wild-type cells", "result": 2.11, "unit": "fold"}, {"measurement": "Hspd1 protein, mean", "setting": "[2]; 500 μM, wild-type cells", "result": 2.35, "unit": "fold"}, {"measurement": "Drp1 mRNA, mean", "setting": "[2]; Hspa1a/Hspa1b KO cells", "result": 2.11}, {"measurement": "Bnip3, mean", "setting": "[2]; after MG treatment", "result": 0.39, "unit": "fold"}, {"measurement": "Parkin, mean", "setting": "[2]; after MG treatment", "result": 0.45, "unit": "fold"}, {"measurement": "Pink1, mean", "setting": "[2]; after MG treatment", "result": 0.69, "unit": "fold"}]}, {"smiles": "O=C(O)CCCc1ccccc1", "note": "[NaPB, sodium-phenylbutyrate]", "values": [{"measurement": "Peripheral insulin sensitivity, higher than placebo", "setting": "[3]; [5]", "result": 27, "unit": "%"}, {"measurement": "ΔRd (insulin-stimulated glucose disposal rate minus baseline)", "setting": "[3]; [5]", "result": "13.2 ± 1.8", "unit": "µmol/kg/min"}, {"measurement": "Increase of plasma phenylbutyrate levels vs placebo", "setting": "[3]; 4.8 g/m²/day for 2 weeks, LCMS", "result": 5.5, "unit": "fold"}, {"measurement": "Fasting glucose", "setting": "[3]; after 2 weeks", "result": "7.8 ± 0.4", "unit": "mmol/L"}, {"measurement": "Fasting plasma isoleucine", "setting": "[3]; after 2 weeks", "result": "105.2 ± 3.5", "unit": "µmol/L"}, {"measurement": "Fasting plasma leucine", "setting": "[3]; after 2 weeks", "result": "168.7 ± 5.1", "unit": "µmol/L"}, {"measurement": "Fasting plasma valine", "setting": "[3]; after 2 weeks", "result": "275.3 ± 10.3", "unit": "µmol/L"}, {"measurement": "Peripheral insulin-mediated glucose oxidation", "setting": "[3]; clamp", "result": "11.9 ± 0.7", "unit": "µmol/kg/min"}, {"measurement": "ΔRER (metabolic flexibility)", "setting": "[3]; clamp", "result": "0.09 ± 0.01"}, {"measurement": "O2-flux, maximally coupled mitochondrial respiration fueled by pyruvate", "setting": "[3]; skeletal muscle ex vivo", "result": "74.0 ± 4.1", "unit": "pmol/s/mg"}]}, {"smiles": "CCCCCCCC/C=C\\CCCCCCCC(=O)O", "note": "[OA, oleate]", "values": [{"measurement": "Cell viability", "setting": "INS1E cells; INS1E-ctr cells, 500 μM each fatty acid, MTT", "result": 91, "unit": "%"}]}, {"smiles": "CCCCCCCCCCCCCCCC(=O)O", "note": "[PA, palmitate]", "values": [{"measurement": "Viability decrease stronger than in INS1E-ctr", "setting": "INS1E cells; INS1E-SPL cells, 500 μM", "result": "~ 25%"}, {"measurement": "Cell viability loss", "setting": "INS1E cells; INS1E-SPP cells, 500 μM", "result": 20, "unit": "%"}]}, {"smiles": "CC[C@H](C)[C@H](NC(=O)[C@H](Cc1ccccc1)NC(=O)[C@H](CCC(=O)O)NC(=O)[C@H](CCCCNC(=O)COCCOCCNC(=O)COCCOCCNC(=O)CC[C@H](NC(=O)CCCCCCCCCCCCCCCCC(=O)O)C(=O)O)NC(=O)[C@H](C)NC(=O)[C@H](C)NC(=O)[C@H](CCC(N)=O)NC(=O)CNC(=O)[C@H](CCC(=O)O)NC(=O)[C@H](CC(C)C)NC(=O)[C@H](Cc1ccc(O)cc1)NC(=O)[C@H](CO)NC(=O)[C@H](CO)NC(=O)[C@@H](NC(=O)[C@H](CC(=O)O)NC(=O)[C@H](CO)NC(=O)[C@@H](NC(=O)[C@H](Cc1ccccc1)NC(=O)[C@@H](NC(=O)CNC(=O)[C@H](CCC(=O)O)NC(=O)C(C)(C)NC(=O)[C@@H](N)Cc1cnc[nH]1)[C@@H](C)O)[C@@H](C)O)C(C)C)C(=O)N[C@@H](C)C(=O)N[C@@H](Cc1c[nH]c2ccccc12)C(=O)N[C@@H](CC(C)C)C(=O)N[C@H](C(=O)N[C@@H](CCCNC(=N)N)C(=O)NCC(=O)N[C@@H](CCCNC(=N)N)C(=O)NCC(=O)O)C(C)C", "note": "[SEMA, semaglutide]", "values": [{"measurement": "Diarrhoea", "setting": "[4]", "result": 12, "unit": "%"}, {"measurement": "Nausea", "setting": "[4]", "result": 18, "unit": "%"}, {"measurement": "Vomiting", "setting": "[4]", "result": 8, "unit": "%"}]}, {"smiles": "C=CC(N)CCC(=O)O", "note": "(stereo not drawn) [Vigabatrin]", "values": [{"measurement": "Increase of occurrence of cilia Ca2+ flashes", "setting": "[1]", "result": "3-4 fold"}]}, {"smiles": "NCCCC(O)(P(=O)(O)O)P(=O)(O)O", "note": "[alendronate]", "values": [{"measurement": "Crude OR of developing type 2 diabetes", "setting": "ever use", "result": 0.93}, {"measurement": "Multiple adjusted OR of developing type 2 diabetes", "setting": "ever use", "result": 0.64}, {"measurement": "Adjusted OR of developing type 2 diabetes", "setting": "more than 8 years of use", "result": 0.47}]}]}
